The source of these data is US12421212B2, “Substituted benzenecarboxamides as IL-17A modulators” (DiCE Alpha, Inc., priority 2019, dated 2025).

Molecules are shown by their SMILES. Bounds are passed on as bounds.

The first test has as its target T1, IL-17A/A (Homo sapiens, UniProt Q16552).
T1 construct: purchased Genscript Z03228
T1 sequence (Q16552 24-155): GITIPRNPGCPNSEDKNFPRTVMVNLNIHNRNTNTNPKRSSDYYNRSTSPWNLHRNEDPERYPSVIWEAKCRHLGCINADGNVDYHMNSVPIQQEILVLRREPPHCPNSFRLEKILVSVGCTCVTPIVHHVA
As to the kind of experiment: IL-17A/A HEK-Blue Cell Assay. In kind it is cell-based. The conditions noted are these: HEK-Blue IL-17A reporter cell line, SEAP readout at A630, 20 hours incubation with IL-17A/A; top concentration 10 uM, 1 uM or 0.3 uM.
Take `CCn1nccc1C(=O)N[C@H](C(=O)Nc1ccc([C@H](C)[C@@H](NC(=O)NC2CC2)C(=O)N2CCN(C)CC2)cc1F)[C@H]1CC[C@H](C)CC1` [Compound 404]: the “IL-17A/A inhibition (pIC50)” value is “B (8>B≥7 as B)”.

The test is the same for the next values; noted with them: HEK-Blue IL-17A reporter cell line, SEAP readout at A630, 20 hours incubation with IL-17A/A; top concentration 10 uM, 1 uM or 0.3 uM; read-out: IL-17A/A inhibition (pIC50) (converted).
For the molecule `CCC(=O)N[C@@H](C(=O)N1CCC(C)(O)CC1)[C@@H](C)c1ccc(NC(=O)[C@@H](NC(=O)c2ccnn2C(C)C)[C@H]2CC[C@H](C)CC2)c(F)c1` [Compound 377], the IC50 was 10 to 100 nM.
For the molecule `CCC(=O)N[C@@H](C(=O)N1CCC(C)(O)CC1)[C@@H](C)c1ccc(NC(=O)[C@@H](NC(=O)C(F)(F)c2cncs2)[C@H]2CC[C@H](C)CC2)c(F)c1` [Compound 378], the IC50 is 10 to 100 nM.
As for `C[C@@H](c1ccc(NC(=O)[C@@H](NC(=O)c2ccnn2C2CCCC2)[C@H]2CC[C@H](C)CC2)c(F)c1)[C@@H](NC(=O)C1(F)CC1)C(=O)N1CCOCC1` [Compound 380], the IC50 was 10 to 100 nM.
With `CCn1nccc1C(=O)N[C@H](C(=O)Nc1ccc([C@H](C)[C@@H](NC(=O)c2cnns2)C(=O)N2CCOCC2)cc1F)[C@H]1CC[C@H](C)CC1` [Compound 381], the IC50 is 10 to 100 nM.
`CCC(=O)N[C@H](Cc1ccc(NC(=O)[C@@H](NC(=O)c2ccnn2CC)C2CCCCC2)c(F)c1)C(=O)N1CCC(C)(O)CC1` [Compound 382]: the IC50 was 10 to 100 nM.
`C[C@@H](c1ccc(NC(=O)[C@@H](NC(=O)C(F)(F)c2cccc(C#N)c2)C2CCCCCC2)c(F)c1)[C@@H](O)C(=O)N1CCN(C)CC1` [Compound 383]: the IC50 is 10 to 100 nM.
The same measure, in the same setting: the same measure for `CCn1nccc1C(=O)N[C@H](C(=O)Nc1ccc([C@H](C)[C@@H](NC(=O)c2cnns2)C(=O)N2CCN(C)CC2)cc1F)[C@H]1CC[C@H](C)CC1` [Compound 388]: 10 to 100 nM; for `CCC(=O)N[C@H](C(=O)N1CCN(C)CC1)[C@H](C)c1ccc(NC(=O)[C@@H](NC(=O)c2ccnn2CC)[C@@H](C)OC2CCCCC2)c(F)c1` [Compound 389]: 10 to 100 nM.
Still for that read-out and setting: the figure for `CCC(=O)N[C@@H](C(=O)N1CCN(C)CC1)[C@@H](C)c1ccc(NC(=O)C(NC(=O)c2ccnn2CC)[C@@H](C)C2CCCCC2)c(F)c1` (stereo partly shown) [Compound 390] is less than 10 nM.
Take `C[C@@H](c1ccc(NC(=O)[C@@H](NC(=O)C(F)(F)c2cccc(C#N)c2)C2CCCCCC2)c(F)c1)[C@@H](NC(=O)c1cnns1)C(=O)N1CCN(C)CC1` [Compound 391]: the IC50 is less than 10 nM.
Turning to `CCC(=O)N[C@@H](C(=O)N1CCS(=O)(=O)CC1)[C@@H](C)c1ccc(NC(=O)[C@@H](NC(=O)c2ccnn2CC)[C@H]2CC[C@H](C)CC2)c(F)c1` [Compound 392], the IC50 was 10 to 100 nM.
Take `CCC(=O)N[C@@H](C(=O)N1CCN(C)CC1)[C@@H](C)c1ccc(NC(=O)C(NC(=O)c2ccnn2C(C)C)C(C)c2ccc(F)cc2)c(F)c1` (stereo partly shown) [Compound 393]: the IC50 is 10 to 100 nM.
As for `CCC(=O)N[C@@H](C(=O)N1CCN(C)CC1)[C@@H](C)c1ccc(NC(=O)C(NC(=O)C(F)(F)c2ccc(OC)nc2)[C@@H](C)C2CCCCC2)c(F)c1` (stereo partly shown) [Compound 394], the IC50 was less than 10 nM.
The same measure, in the same setting: the same measure for `CCn1nccc1C(=O)N[C@H](C(=O)Nc1ccc([C@H](C)[C@@H](NC(=O)CC2CC2)C(=O)N2CCN(C)CC2)cc1F)[C@H]1CC[C@H](C)CC1` [Compound 396]: 10 to 100 nM.
Same read-out and setting: the same measure for `CCC(=O)N[C@@H](C(=O)N1CCN(C)CC1)[C@@H](C)c1ccc(NC(=O)[C@@H](NC(=O)c2conc2C2(C)COC2)[C@H]2CC[C@H](C)CC2)c(F)c1` [Compound 397]: 10 to 100 nM; for `CC(C)n1nccc1C(=O)N[C@H](C(=O)Nc1ccc([C@H](C)[C@@H](NC(=O)c2ccnn2C2CCC2)C(=O)N2CCN(C)CC2)cc1F)[C@H]1CC[C@H](C)CC1` [Compound 398]: less than 10 nM.
For `CC(C)n1nccc1C(=O)N[C@H](C(=O)Nc1ccc([C@H](C)[C@@H](NC(=O)c2ccnn2C2CC2)C(=O)N2CCN(C)CC2)cc1F)[C@H]1CC[C@H](C)CC1` [Compound 399], the IC50 is less than 10 nM.
The same measure, in the same setting: the same measure for `COc1cncc(C(F)(F)C(=O)N[C@H](C(=O)Nc2ccc([C@H](C)[C@@H](NC(=O)c3cnns3)C(=O)N3CCN(C)CC3)cc2F)[C@H]2CC[C@H](C)CC2)c1` [Compound 400]: less than 10 nM; for `CCn1nccc1C(=O)N[C@H](C(=O)Nc1ccc([C@H](C)[C@@H](NC(=O)NC2CC2)C(=O)N2CCN(C)CC2)cc1)C1CCCCC1` [Compound 402]: 10 to 100 nM.
Same read-out and setting: the same measure for `CCC(=O)NC(C(=O)N1CCN(C)CC1)C(C)c1ccc(NC(=O)C(NC(=O)C(F)(F)c2cnc(OC)nc2)C2CCC(C)CC2)c(F)c1` (stereo not shown) [Compound 405]: 10 to 100 nM; for `CCn1nccc1C(=O)N[C@H](C(=O)Nc1ccc([C@H](C)[C@@H](NC(=O)C2(F)CC2)C(=O)N2CCN(C)CC2)cc1F)[C@H]1CC[C@H](C)CC1` [Compound 406]: 10 to 100 nM.
For the molecule `CCn1cc(C(F)(F)C(=O)N[C@H](C(=O)Nc2ccc([C@H](C)[C@@H](NC(=O)c3cnns3)C(=O)N3CCN(C)CC3)cc2F)[C@H]2CC[C@H](C)CC2)cn1` [Compound 407], the IC50 was less than 10 nM.
Still for that read-out and setting: the same measure for `CCc1nonc1C(=O)N[C@H](C(=O)Nc1ccc([C@H](C)[C@@H](NC(=O)c2cnns2)C(=O)N2CCN(C)CC2)cc1F)[C@H]1CC[C@H](C)CC1` [Compound 408]: less than 10 nM.
On to `CCc1ccoc1C(=O)N[C@H](C(=O)Nc1ccc([C@H](C)[C@@H](NC(=O)c2cnns2)C(=O)N2CCN(C)CC2)cc1F)[C@H]1CC[C@H](C)CC1` [Compound 409], for which the IC50 was 10 to 100 nM.
Still for that read-out and setting: the same measure for `CCn1ncnc1C(=O)N[C@H](C(=O)Nc1ccc([C@H](C)[C@@H](NC(=O)c2cnns2)C(=O)N2CCN(C)CC2)cc1F)[C@H]1CC[C@H](C)CC1` [Compound 410]: 10 to 100 nM.
As for `CCc1nocc1C(=O)N[C@H](C(=O)Nc1ccc([C@H](C)[C@@H](NC(=O)c2cnns2)C(=O)N2CCN(C)CC2)cc1F)[C@H]1CC[C@H](C)CC1` [Compound 414], the IC50 was less than 10 nM.
`CCn1nccc1C(=O)N[C@H](C(=O)Nc1ccc([C@H](C)[C@@H](NC(=O)c2ccnn2C2CCOCC2)C(=O)N2CCC(C)(O)CC2)cc1F)[C@H]1CC[C@H](C)CC1` [Compound 417]: the IC50 is less than 10 nM.
Still for that read-out and setting: the same measure for `CCC(=O)N[C@@H](C(=O)N1CCN(C)CC1)[C@@H](C)c1ccc(NC(=O)C(NC(=O)C(F)(F)c2cnc(OC)nc2)C2CCCCCC2)c(F)c1` (stereo partly shown) [Compound 418]: 10 to 100 nM; for `CCC(=O)N[C@@H](C(=O)N1CCN(C)CC1)[C@@H](C)c1ccc(NC(=O)C(NC(=O)C(F)(F)C2CCCCC2)[C@H]2CC[C@H](C)CC2)c(F)c1` (stereo partly shown) [Compound 419]: 10 to 100 nM; for `CCC(=O)N[C@@H](C(=O)N1CCN(C(C)(C)C)CC1)[C@@H](C)c1ccc(NC(=O)[C@@H](NC(=O)c2ccnn2CC)[C@H]2CC[C@H](C)CC2)c(F)c1` [Compound 420]: less than 10 nM.
As to `CCC(=O)N[C@@H](C(=O)N1CCC(CC(=O)OC(C)(C)C)CC1)[C@@H](C)c1ccc(NC(=O)[C@@H](NC(=O)c2ccnn2CC)[C@H]2CC[C@H](C)CC2)c(F)c1` [Compound 421], the IC50 was 10 to 100 nM.
In the case of `CCC(=O)N[C@@H](C(=O)N1CCC(CC(=O)O)CC1)[C@@H](C)c1ccc(NC(=O)[C@@H](NC(=O)c2ccnn2CC)[C@H]2CC[C@H](C)CC2)c(F)c1` [Compound 422], the IC50 is 10 to 100 nM.
Regarding `CCC(=O)N[C@@H](C(=O)N1CCN(CCO)CC1)[C@@H](C)c1ccc(NC(=O)[C@@H](NC(=O)c2ccnn2CC)[C@H]2CC[C@H](C)CC2)c(F)c1` [Compound 423], the IC50 was 10 to 100 nM.
